Data as given in patent US11142546B2, “Neuropeptide S receptor (NPSR) agonists” (Research Triangle Institute, priority 2016, dated 2021).

Legend:
[1] = target: T1, human NPS receptor variants (NPS Ile107 and Asn107) (Homo sapiens, UniProt Q6W5P4); experiment: Functional determination of EC50 by calcium mobilization in RD-HGA16 CHO cells overexpressing the NPS receptor; assay type: cell-based; details: FlexStation, mean of at least three independent experiments, receptor variant not given
T1 sequence (Q6W5P4 1-371 N107I): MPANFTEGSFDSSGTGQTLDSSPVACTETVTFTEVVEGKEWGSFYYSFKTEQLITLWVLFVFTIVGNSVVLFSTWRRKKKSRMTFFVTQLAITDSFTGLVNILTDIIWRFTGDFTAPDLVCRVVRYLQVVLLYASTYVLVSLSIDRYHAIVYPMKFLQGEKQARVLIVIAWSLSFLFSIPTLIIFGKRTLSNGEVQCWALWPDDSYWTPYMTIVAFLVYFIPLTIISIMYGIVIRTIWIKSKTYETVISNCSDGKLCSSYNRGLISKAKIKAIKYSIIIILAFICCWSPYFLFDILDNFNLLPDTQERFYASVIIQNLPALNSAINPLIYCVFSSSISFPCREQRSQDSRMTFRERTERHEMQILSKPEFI
From the text: Functional Determinations of EC50: Identification of functional agonists at the NPS receptor was done utilizing RD-HGA16 cells (Molecular Devices), a Chinese Hamster Ovary cell line stably expressing the promiscuous Gq-protein Gα16. RD-HGA16 cells were engineered to stably overexpress the NPS receptor. Two individual cell lines were created that stably express one of two human NPS receptor variants (NPS Ile107 and Asn107). Cells were loaded with a calcium sensitive dye (Molecular Devices) for 1 h at 370 C and compounds were assayed in separate experiments for intrinsic activity as measured by increased fluorescence intensity as a marker of mobilization of internal calcium stores using a FlexStation fluorescence plate reader. Compounds were run as 8-point full log or half log concentration curves in duplicate in order to determine the EC50 of the test compound. Each compound was tested in at least three independent experiments. A three-parameter logistic equation was fit to the concentration response data with Prism Software (v5 for Windows, GraphPad Software; San Diego, Calif.) to calculate the EC50 values. The data represent the mean±SEM from at least three independent experiments. Table 1 lists the EC50 for certain compounds of Formula I or Formula II.

[2] = target: T2, NPSR-C-Alt (Homo sapiens, UniProt Q6W5P4); experiment: Functional assay of NPS receptor isoforms; assay type: cell-based; details: least potent at NPSR-C-Alt
T2 sequence (Q6W5P4 1-377 isoform Q6W5P4-4): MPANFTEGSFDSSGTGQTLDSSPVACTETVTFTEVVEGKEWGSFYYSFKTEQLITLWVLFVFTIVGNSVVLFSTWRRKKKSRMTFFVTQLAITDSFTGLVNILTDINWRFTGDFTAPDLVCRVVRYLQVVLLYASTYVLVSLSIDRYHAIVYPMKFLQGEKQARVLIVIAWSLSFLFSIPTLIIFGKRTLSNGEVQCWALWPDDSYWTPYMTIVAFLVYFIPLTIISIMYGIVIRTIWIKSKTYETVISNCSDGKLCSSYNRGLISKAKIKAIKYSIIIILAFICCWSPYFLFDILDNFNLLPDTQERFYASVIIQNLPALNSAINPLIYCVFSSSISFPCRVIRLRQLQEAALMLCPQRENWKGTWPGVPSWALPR
Method: The neuropeptide S receptor has at least three known isoforms including the wild type NPS Asn^107, the NPS Asn107Ile and NPS C-Alt. Since each variant could potentially have functional difference, the agonist sensitivity of each isoform was evaluated.

In the case of `NC(=O)[C@H]1CCCC[C@@H]1NC(=O)CNC(=O)/C=C/c1ccccc1` (racemic) [Compound R06039-655, (1R/S,2S/R)-2-(2-cinnamamidoacetamido)cyclohexanecarboxamide], the EC50 [1] is reported as 2110 nM.

With `NC(=O)[C@H]1CCCC[C@@H]1NC(=O)CNC(=O)C(Cc1ccccc1)Cc1ccccc1` (racemic) [Compound R06039-656, (1R/S,2S/R)-2-(2-(2-benzyl-3-phenylpropanamido)acetamido)cyclohexanecarboxamide] the EC50 [1] was 1020 nM.

With `NC(=O)[C@@H]1CCCC[C@H]1NC(=O)CNC(=O)/C(=C/c1ccccc1)CCc1ccccc1` (relative stereo) [Compound R06039-675, Trans-2-(2-((E)-2-Benzylidene-4-phenylbutanamido)acetamido)cyclohexanecarboxamide] the EC50 [1] was 213 nM.

For `NC(=O)[C@@H]1CCCC[C@H]1NC(=O)CNC(=O)C(CCC1CCCCC1)Cc1ccccc1` (relative stereo) [Compound R06039-682, Trans-2-(2-(2-Benzyl-4-cyclohexylbutanamido)acetamido)cyclohexanecarboxamide], the EC50 [1] was 894 nM.

Molecule `NC(=O)[C@H]1CCCC[C@@H]1OC(=O)CNC(=O)[C@H](Cc1ccccc1)NC(=O)c1ccccc1` [Compound R06039-636, (1S,2S)-2-carbamoylcyclohexyl-2-[(2S)-3-phenyl-2-(phenylformamido)propanamido]acetate] has an EC50 [1] of 94 nM.

`NC(=O)[C@@H]1CCCC[C@H]1NC(=O)CNC(=O)[C@H](Cc1ccccc1)OCc1ccccc1` [Compound R06039-641, Trans-2-(2-((S)-2-(benzyloxy)-3-phenylpropanamido)acetamido)cyclohexanecarboxamide] gave an EC50 [1] of 169 nM.

`NC(=O)[C@H]1CCCC[C@@H]1NC(=O)CNC(=O)C(Cc1ccccc1)c1ccccc1` (some centres unmarked) [Compound R06039-657, (1R/S,2S/R)-2-(2-(2,3-diphenylpropanamido)acetamido)cyclohexanecarboxamide] gave an EC50 [1] of 901 nM.

`NC(=O)C1C2CCC(CC2)C1NC(=O)CNC(=O)C(CCc1ccccc1)Cc1ccccc1` (centres unmarked) [Compound R06039-691, 3-[2-(2-Benzyl-4-phenylbutanamido)acetamido]bicyclo[2.2.2]octane-2-carboxamide] showed an EC50 [1] of 93 nM.

With `NCCCC[C@H](NC(=O)C(CCc1ccccc1)Cc1ccccc1)C(=O)NC1CCCCC1C(N)=O` (stereo partly drawn) [Compound R06039-693, 2-[(2S)-6-amino-2-(2-benzyl-4-phenylbutanamido)hexanamido]cyclohexane-1-carboxamide] the EC50 [1] was 77 nM.

`NCCCC[C@H](NC(=O)C(CCc1ccccc1)Cc1ccccc1)C(=O)NC1C2CCC(CC2)C1C(N)=O` (stereo partly drawn) [Compound R06039-696, 3-[(2S)-6-amino-2-(2-benzyl-4-phenylbutanamido)hexanamido]bicyclo[2.2.2]octane-2-carboxamide] gave an EC50 [1] of 91 nM.

With “hNPS: Human neuropeptide S, 20 residue peptide with the primary sequence SFRNGVGTGMKKTSFQRAKS (SEQ ID NO: 1) (Human)” the “potency at NPSR-C-Alt, fold lower versus the 107I variant” value [2] was 30 fold.
